# Measurements taken from ChEMBL document CHEMBL1134799, “4,1-Benzoxazepinone analogues of efavirenz (Sustiva) as HIV-1 reverse transcriptase inhibitors” (Bioorg Med Chem Lett, 2001).
# Key:
# [1] = biological target: Human immunodeficiency virus type 1 reverse transcriptase (Human immunodeficiency virus 1) (UniProt Q72547)
# Description: Compound was evaluated for its ability to inhibit the wild type RF strain of HIV-1
# [2] = tested on: Human immunodeficiency virus type 1 reverse transcriptase (Human immunodeficiency virus 1), Q72547 [K103N]
# Description: Compound was evaluated for its ability to inhibit a virus containing the clinically relevant K103N mutation
# [3] = biological target: T1, Human immunodeficiency virus type 1 reverse transcriptase (Human immunodeficiency virus 1, UniProt Q72547); assay: Inhibition of HIV-1 Reverse Transcriptase in an in vitro enzyme assay
# [4] = biological target: T1, Human immunodeficiency virus type 1 reverse transcriptase; assay: Compound was evaluated for its ability to inhibit HIV-1 Reverse Transcriptase in an in vitro enzyme assay
# [5] = Tmax was determined; format: ADME
# [6] = Cmax was determined; format: ADME, organism-based; details: in vivo
# [7] = Area under curve obtained at a dose of 10 mg/kg when administered orally to rhesus monkey; format: ADME, organism-based, Macaca mulatta; parameters: dose 10 mg/kg, route oral; details: in vivo, po
# [8] = Total plasma concentration at 24 hr at a dose of 10 mg/kg when administered orally to rhesus monkey; format: ADME, organism-based, Macaca mulatta; parameters: dose 10 mg/kg, route oral; details: po, read-out: C24h
Structure (SMILES),IC90 [1] [nM],IC90 [2] [nM],IC50 [3] [nM],IC50 [4] [nM],Tmax [5] [h],Cmax [6] [nM],AUC [7] [µM·h],concentration at 24 h [8] [nM]
CCC1OC(C#CC2CC2)(C(F)(F)F)c2cc(Cl)ccc2NC1=O (centres undefined),8.4,139,391,–,–,–,–,–
O=C1COC(C#Cc2ccccc2)(C(F)(F)F)c2cc(Cl)ccc2N1 (centres undefined),24.3,4100,–,3300,–,–,–,–
CCC1OC(/C=C/C2CC2)(C(F)(F)F)c2cc(F)ccc2NC1=O (centres undefined),2.5,70,–,151,–,–,–,–
O=C1COC(C#Cc2ccoc2)(C(F)(F)F)c2cc(Cl)ccc2N1 (centres undefined),47.5,–,–,2510,–,–,–,–
CC(C)C1OC(C#CC2CC2)(C(F)(F)F)c2cc(Cl)ccc2NC1=O (centres undefined),20.7,–,–,597,–,–,–,–
CCC1OC(/C=C/C2CC2)(C(F)(F)F)c2cc(Cl)ccc2NC1=O (centres undefined),7.8,13,–,185,–,–,–,–
O=C1Nc2ccc(Cl)cc2[C@@](/C=C/C2CC2)(C(F)(F)F)N1,2.1,27,–,23,–,–,–,–
CC1OC(/C=C/C2CC2)(C(F)(F)F)c2c(ccc(F)c2F)NC1=O (centres undefined),5.2,81,–,173,–,–,–,–
C[C@H]1O[C@](C#CC2CC2)(C(F)(F)F)c2cc(Cl)ccc2NC1=O,7,1130,–,249,–,–,–,–
C[C@@H]1O[C@](C#CC2CC2)(C(F)(F)F)c2cc(F)ccc2NC1=O,5.2,333,–,95,–,–,–,–
CC[C@@H]1O[C@](C#CC2CC2)(C(F)(F)F)c2cc(F)ccc2NC1=O,5.3,117,–,171,–,–,–,–
CC[C@H]1O[C@](C#CC2CC2)(C(F)(F)F)c2cc(F)ccc2NC1=O,87.4,–,–,1140,–,–,–,–
O=C1COC(/C=C/C2CC2)(C(F)(F)F)c2cc(Cl)ccc2N1 (centres undefined),3.9,362,–,108,–,–,–,–
O=C1Nc2ccc(Cl)cc2C(C#CC2CC2)(C(F)(F)F)OC1CC(F)(F)F (centres undefined),16.8,–,–,235,–,–,–,–
CC1OC(/C=C/C2CC2)(C(F)(F)F)c2cc(Cl)ccc2NC1=O (centres undefined),2.5,35,–,46,11,2360,50.8,1400
CCC#CC1(C(F)(F)F)OCC(=O)Nc2ccc(Cl)cc21 (centres undefined),9.1,1760,–,964,–,–,–,–
CC1OC(/C=C/C2CC2)(C(F)(F)F)c2cc(F)ccc2NC1=O (centres undefined),7.6,118,–,129,–,–,–,–
C[C@@H]1O[C@](C#CC2CC2)(C(F)(F)F)c2cc(Cl)ccc2NC1=O (relative stereo),2.2,29,–,82,6,1670,30,1140
C[C@H]1O[C@](C#CC2CC2)(C(F)(F)F)c2cc(F)ccc2NC1=O,189,–,–,1940,–,–,–,–
O=C1COC(C#CC2CC2)(C(F)(F)F)c2cc(Cl)ccc2N1 (centres undefined),9.1,1400,–,432,–,–,–,–
CCCC1OC(C#CC2CC2)(C(F)(F)F)c2cc(Cl)ccc2NC1=O (centres undefined),17.2,–,–,799,–,–,–,–
O=C1Nc2ccc(Cl)cc2[C@@](C#CC2CC2)(C(F)(F)F)N1,2,10,–,32,–,–,–,–
CC(C)C#CC1(C(F)(F)F)OCC(=O)Nc2ccc(Cl)cc21 (centres undefined),9.7,784,–,423,–,–,–,–
CC1OC(C#CC2CC2)(C(F)(F)F)c2c(ccc(F)c2F)NC1=O (centres undefined),5.8,75,–,193,–,–,–,–
